According to patent US20070098649A1, “Method and composition for controlling oral pathogens” (priority 2004, published 2007):
Counter-ions that a name gives are not always drawn. Like-named read-outs stand apart in the source and are kept apart here. Marks after values point to notes of the source that are not given here.

Assays:
Assay type in all cases: cell-based
[1] = system: Actinobacillus actinomycetemcomitans; assay: MIC microdilution assay; details: Aggregatibacter actinomycetemcomitans
Streptococcus gordonii [2] = assay: MIC microdilution assay; details: Streptococcus gordonii, S. gordonii
A. actinomycetemcomitans = assay: Relative cell surface hydrophobicity (hexanes partition); details: agent alone 5 μg ml^−1
Fusobacterium nucleatum [3] = assay: MIC microdilution assay; details: Fusobacterium nucleatum, F. nucleatum
F. nucleatum [4] = assay: Relative cell surface hydrophobicity (hexanes partition); details: agent alone 5 μg ml^−1
Escherichia coli [5] = assay: MIC microdilution assay; details: E. coli, agent alone, read-out: MIC of the antimicrobial agents alone
Streptococcus mutans [6] = assay: Combination determination (FIC, MIC in combination); details: S. mutans; for MIC of the antimicrobial agents in combination: berberine (B-CG) combined with CHX, Tet or Dox, MIC of the named agent in the combination; for Approximate amount of antibiotic required when combined with berberine relative to when the agent is used alone: fraction of the amount alone
Experimental: (§1) The alkaloids were tested in pair-wise combinations (fractional inhibitory concentrations, FIC) against all the bacteria to determine whether interactions were antagonistic (FIC>1), additive (0.5<FIC<1), or synergistic (FIC<0.5). The FIC was calculated by the following: (MIC Acombination/MIC Aalone)+(MIC Bcombination/MIC Balone). Where A represents compound 1 and B represents compound 2. […] In the case of A. actinomycetemcomitans and P. aeruginosa, CHX was used at 0.78 to 50 μg ml^−1. Berberine (B-CG and B-S) was used at concentrations 0.9 to 250 μg ml^−1. The antibacterial efficacy of berberine (1.95 to 500 μg ml^−1) was tested in combination against P. aeruginosa with CHX (0.78 to 50 μg ml^−1) (Sigma Chemicals) and the polymyxin antibiotic Col (0.04 to 25 μg ml^−1) (Sigma Chemicals). The plates were incubated for 24 hours.
CHX was diluted from left to right at 10 to 0.08 μg ml^−1 ([…] 1 to 8), berberine was diluted from top to bottom at 250 to 0.09 μg ml^−1 ([…] 1 to 8). Column 9 was the cell control, column 10 was berberine alone (250 to 0.09 μg ml^−1); and column 11 was CHX alone (10 to 0.08 μg ml^−1). Row H was the solvent control (8% DMSO, H1 to H8). Column 12 was the media blank. The dilution assay was designed such that A1 contained the highest concentration of both agents (berberine 250 μg ml^−1 and CHX 10 μg ml^−1). The final concentration of berberine in wells A2 to A8 was […]. The FIC value was calculated from well C6. FIC was calculated by: (MIC Acombination/MIC Aalone)+(MIC Bcombination/MIC Balone).

oral pathogens = assay: Combination determination, statements on the oral pathogens; details: berberine hydrochloride / berberine (B-CG and B-S)
Experimental: as §1

Porphymonas gingivalis [7] = assay: MIC microdilution assay; details: Porphyromonas gingivalis, P. gingivalis
Staphylococcus aureus [8] = assay: MIC microdilution assay; details: S. aureus, agent alone, read-out: MIC of the antimicrobial agents alone
S. mutans [9] = assay: Viability assessment (bactericidal activity); details: CHX (20) μg ml^−1
Experimental: (§2) Two representative organisms, S. mutans and F. nucleatum, were used in this study. […] Aliquots of 4 ml of agent, prepared in sterile water, were placed into sterile test tubes and 1 ml of adjusted cells was added. The control consisted of 4 ml of PBS and 1 ml of cells. Samples were removed at 0, 15, 30, and 60 minutes, serial dilutions were performed, and the appropriate dilutions plated out. The plates were incubated at 37° C. under appropriate atmospheric conditions for up to 72 hours. Viable colony counts were determined and compared to nontreated control Percentage kill was calculated using the formula: ([…]×100. Log reduction was also calculated on Log10 transformed data. Effect of Berberine on Cell Surface Hydrophobicity

F. nucleatum [10] = assay: Viability assessment (bactericidal activity)
Experimental: as §2

S. mutans [11] = assay: Relative cell surface hydrophobicity (hexanes partition); details: agent alone 5 μg ml^−1
Streptococcus mutans [12] = assay: MIC microdilution assay; details: Streptococcus mutans, S. mutans
S. gordonii = assay: Relative cell surface hydrophobicity (hexanes partition); details: agent alone 5 μg ml^−1
P. gingivalis = assay: as above; details: agent alone 5 μg ml^−1
Escherichia coli [13] = assay: Combination determination (FIC, MIC in combination); details: E. coli; for MIC of the antimicrobial agents in combination: berberine (B-CG) combined with CHX, Tet or Dox, MIC of the named agent in the combination; for Growth inhibition effect when combined with berberine: berberine hydrochloride / chloride; for Approximate amount of antibiotic required when combined with berberine relative to when the agent is used alone: fraction of the amount alone
Experimental: as §1

Fusobacterium nucleatum [14] = assay: as above; details: F. nucleatum; for MIC of the antimicrobial agents in combination: berberine (B-CG) combined with CHX, Tet or Dox, MIC of the named agent in the combination; for Approximate amount of antibiotic required when combined with berberine relative to when the agent is used alone: fraction of the amount alone
Experimental: as §1

[15] = system: Actinobacillus actinomycetemcomitans; assay: as above; details: A. actinomycetemcomitans grown under anaerobic conditions; berberine (B-CG) combined with CHX, Tet or Dox; MIC of the named agent in the combination
Experimental: as §1

Staphylococcus aureus [16] = assay: as above; details: S. aureus; for MIC of the antimicrobial agents in combination: berberine (B-CG) combined with CHX, Tet or Dox, MIC of the named agent in the combination; for Growth inhibition effect when combined with berberine: berberine hydrochloride / chloride; for Approximate amount of antibiotic required when combined with berberine relative to when the agent is used alone: fraction of the amount alone
Experimental: as §1

Pseudomonas aeruginosa [17] = assay: as above; details: P. aeruginosa
Experimental: as §1

Streptococcus gordonii [18] = assay: as above; details: S. gordonii; for MIC of the antimicrobial agents in combination: berberine (B-CG) combined with CHX, Tet or Dox, MIC of the named agent in the combination; for Approximate amount of antibiotic required when combined with berberine relative to when the agent is used alone: fraction of the amount alone
Experimental: as §1

Porphymonas gingivalis [19] = assay: as above; details: P. gingivalis; for MIC of the antimicrobial agents in combination: berberine (B-CG) combined with CHX, Tet or Dox, MIC of the named agent in the combination; for Approximate amount of antibiotic required when combined with berberine relative to when the agent is used alone: fraction of the amount alone
Experimental: as §1

Pseudomonas aeruginosa [20] = assay: MIC microdilution assay; details: Pseudomonas aeruginosa; P. aeruginosa; agent alone; read-out: MIC of the antimicrobial agents alone
test bacteria = assay: Relative cell surface hydrophobicity, statements on the test bacteria; details: summary of Table 12
[21] = A. actinomycetemcomitans grown under anaerobic conditions, agent alone, read-out: MIC of the antimicrobial agents alone
[22] = agent alone, read-out: MIC of the antimicrobial agents alone

[H]/N=C(\N/C(=N/[H])NCCCCCCNC(=N)NC(=N)Nc1ccc(Cl)cc1)Nc1ccc(Cl)cc1 [CHX, chlorhexidine gluconate]
MIC [1, 21]: 50 µg/mL | MIC ([1]; Aa, A. actinomycetemcomitans, read-out: MIC of Goldenseal Alkaloids Against Selected Oral Pathogens): 50 µg/mL | MIC (Streptococcus gordonii [2]; [22]): 5 µg/mL | MIC (Streptococcus gordonii [2]; Sg, read-out: MIC of Goldenseal Alkaloids Against Selected Oral Pathogens): 5 µg/mL | Typical reduction scores on relative cell surface hydrophobicity (A. actinomycetemcomitans): −2.6% | MIC (Fusobacterium nucleatum [3]; [22]): 2.5 µg/mL | MIC (Fusobacterium nucleatum [3]; Fn, read-out: MIC of Goldenseal Alkaloids Against Selected Oral Pathogens): 2.5 µg/mL | Typical reduction scores on relative cell surface hydrophobicity (F. nucleatum [4]): 3.7% | MIC (Escherichia coli [5]): 1.25 µg/mL | MIC of the antimicrobial agents in combination (Streptococcus mutans [6]): 0.04 µg/mL | Approximate amount of antibiotic required when combined with berberine relative to when the agent is used alone (Streptococcus mutans [6]): <½ | MIC alone used for the FIC (Streptococcus mutans [6]; same plate, 48 h): 1.25 µg/mL | MIC in combination used for the FIC (Streptococcus mutans [6]; well C6, berberine (B-G) with CHX, 48 h): 0.3125 µg/mL | Growth inhibition effect when combined with berberine (oral pathogens): synergistic | MIC (Porphymonas gingivalis [7]; [22]): 1.25 µg/mL | MIC (Porphymonas gingivalis [7]; Pg, read-out: MIC of Goldenseal Alkaloids Against Selected Oral Pathogens): 2.5 µg/mL | MIC (Staphylococcus aureus [8]): 2.5 µg/mL | Viability after 60 min exposure (mean Log10 reduction of CFU) (S. mutans [9]): 1.69 Log10 | Viability after 60 min exposure (mean Log10 reduction of CFU) (F. nucleatum [10]; CHX (20)): 3.09* Log10 | Typical reduction scores on relative cell surface hydrophobicity (S. mutans [11]): 5.1% | MIC (Streptococcus mutans [12]; [22]): 1.25 µg/mL | MIC (Streptococcus mutans [12]; Sm, read-out: MIC of Goldenseal Alkaloids Against Selected Oral Pathogens): 1.25 µg/mL | Typical reduction scores on relative cell surface hydrophobicity (S. gordonii): −6.3% | Typical reduction scores on relative cell surface hydrophobicity (P. gingivalis): −2.7% | MIC of the antimicrobial agents in combination (Escherichia coli [13]): 0.63 µg/mL | Growth inhibition effect when combined with berberine (Escherichia coli [13]): synergistic | Approximate amount of antibiotic required when combined with berberine relative to when the agent is used alone (Escherichia coli [13]): ½ | MIC of the antimicrobial agents in combination (Fusobacterium nucleatum [14]): 0.31 µg/mL | Approximate amount of antibiotic required when combined with berberine relative to when the agent is used alone (Fusobacterium nucleatum [14]): <½ | MIC of the antimicrobial agents in combination [15]: 50 µg/mL | MIC of the antimicrobial agents in combination (Staphylococcus aureus [16]): 0.63 µg/mL | Growth inhibition effect when combined with berberine (Staphylococcus aureus [16]): synergistic | Approximate amount of antibiotic required when combined with berberine relative to when the agent is used alone (Staphylococcus aureus [16]): ½ | Interaction when combined with berberine (Pseudomonas aeruginosa [17]): no clear additive or synergistic effect | MIC of the antimicrobial agents in combination (Pseudomonas aeruginosa [17]; berberine combined with CHX or Col, MIC of the named agent in the combination): 3.13** μg ml^−1 | MIC of the antimicrobial agents in combination (Streptococcus gordonii [18]): 0.63 µg/mL | Approximate amount of antibiotic required when combined with berberine relative to when the agent is used alone (Streptococcus gordonii [18]): <½ | MIC of the antimicrobial agents in combination (Porphymonas gingivalis [19]): 0.08 µg/mL | Approximate amount of antibiotic required when combined with berberine relative to when the agent is used alone (Porphymonas gingivalis [19]): <½ | MIC (Pseudomonas aeruginosa [20]): 6.25 µg/mL | Effect on the relative hydrophobicity of the cells (test bacteria): did not appear to affect

C[C@H]1c2cccc(O)c2C(=O)C2=C(O)[C@]3(O)C(=O)C(C(N)=O)=C(O)[C@@H](N(C)C)[C@@H]3[C@@H](O)[C@@H]21 [Dox, doxycycline HCl]
MIC [1, 21]: 6.25 µg/mL | MIC (Streptococcus gordonii [2]; [22]): 0.31 µg/mL | Typical reduction scores on relative cell surface hydrophobicity (A. actinomycetemcomitans): −4.1% | MIC (Fusobacterium nucleatum [3]; [22]): 0.04 µg/mL | Typical reduction scores on relative cell surface hydrophobicity (F. nucleatum [4]): −3.5% | MIC (Escherichia coli [5]): 1.53 µg/mL | MIC of the antimicrobial agents in combination (Streptococcus mutans [6]): 0.20 µg/mL | Approximate amount of antibiotic required when combined with berberine relative to when the agent is used alone (Streptococcus mutans [6]): ¼ | Growth inhibition effect when combined with berberine (oral pathogens): synergistic | MIC (Porphymonas gingivalis [7]; [22]): 0.08 µg/mL | MIC (Staphylococcus aureus [8]): 1.53 µg/mL | Reduction of the concentration required for comparable reduction in viability when used in combination (F. nucleatum [10]; Dox (5 μg ml^−1), berberine (250 μg ml^−1)): one-half | Viability after 60 min exposures (mean Log10 reduction of CFU) (F. nucleatum [10]; Dox (10)): 1.56 Log10 | Typical reduction scores on relative cell surface hydrophobicity (S. mutans [11]): 8.1% | MIC (Streptococcus mutans [12]; [22]): 0.78 µg/mL | Typical reduction scores on relative cell surface hydrophobicity (S. gordonii): 7.7% | Typical reduction scores on relative cell surface hydrophobicity (P. gingivalis): 1.7% | MIC of the antimicrobial agents in combination (Escherichia coli [13]): 0.77 µg/mL | Growth inhibition effect when combined with berberine (Escherichia coli [13]): synergistic | Approximate amount of antibiotic required when combined with berberine relative to when the agent is used alone (Escherichia coli [13]): ½ | MIC of the antimicrobial agents in combination (Fusobacterium nucleatum [14]): 0.10 µg/mL | Approximate amount of antibiotic required when combined with berberine relative to when the agent is used alone (Fusobacterium nucleatum [14]): ¼ | MIC of the antimicrobial agents in combination [15]: 6.25 µg/mL | MIC of the antimicrobial agents in combination (Staphylococcus aureus [16]): 0.39 µg/mL | Growth inhibition effect when combined with berberine (Staphylococcus aureus [16]): synergistic | Approximate amount of antibiotic required when combined with berberine relative to when the agent is used alone (Staphylococcus aureus [16]; listed as Doxycycline (HCL), HCl): ⅕ | Approximate amount of antibiotic required when combined with berberine relative to when the agent is used alone (Staphylococcus aureus [16]; listed as Doxycycline-HCl, HCl): ½ | MIC of the antimicrobial agents in combination (Streptococcus gordonii [18]): 0.08 µg/mL | Approximate amount of antibiotic required when combined with berberine relative to when the agent is used alone (Streptococcus gordonii [18]): <¼ | MIC of the antimicrobial agents in combination (Porphymonas gingivalis [19]): 0.01 µg/mL | Approximate amount of antibiotic required when combined with berberine relative to when the agent is used alone (Porphymonas gingivalis [19]): ¼ | Effect on the relative hydrophobicity of the cells (test bacteria): did not appear to affect
